Measured values as given in patent publication US11691949B2, “Quinoline sulfonamide compounds and their use as antibacterial agents” (OTAGO INNOVATION LIMITED, priority 2017, dated 2023).
Converted amounts (≈) assume the structure as drawn. Where a name gives a salt, the structure may show the parent alone. Read-outs that look alike come from different tables or passages of the source.

Columns and labels:
Assay type in all cases: cell-based
[1] = system: S. uberis ATCC 19436; experiment: MIC by broth microdilution, S. uberis; conditions: Streptococcus uberis
Procedure, shortened: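 This broth microdilution assay used S. uberis ATCC 19436 in Todd Hewitt Broth, with zinc sulphate heptahydrate added where required to a final 50 μM. Inhibitor concentration ranges came from two-fold serial dilutions in 96-well flat bottom plates at 200 μl. Approximately 5×10^5 cfu/mL cells were incubated for 24 h at 37° C. and 200 rpm. Wells were then read at OD600 on a Varioskan Flash reader.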

[2] = system: E. coli ATCC 10596; experiment: MIC by broth microdilution, E. coli; conditions: Escherichia coli
Procedure, shortened: (§1)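 Overnight cultures diluted to ~5×10^5 cfu/mL final; S. aureus in TSB and CAMHB, E. coli in LB and CAMHB, zinc sulphate to 50 μM final as required; two-fold serial dilutions. MIC = lowest concentration with no growth by OD600 after 24 h, 37° C, 200 rpm. MBC by Miles-Misra drop-plate viability count.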

[3] = system: S. aureus ATCC 6538; experiment: MIC by broth microdilution, S. aureus; conditions: Staphylococcus aureus
Procedure, shortened: as §1

[4] = ATCC19436, No Zinc, read-out: S. uberis ATCC 19436 MIC
[5] = ATCC19436, Zinc (50 μM), read-out: S. uberis ATCC 19436 MIC
[6] = ATCC 10536 / ATCC 10596, No Zinc, read-out: E. coli ATCC 10536 MIC
[7] = ATCC 10536 / ATCC 10596, Zinc (50 μM), read-out: E. coli ATCC 10536 MIC
[8] = ATCC6538, No Zinc, read-out: S. aureus ATCC 6538 MIC
[9] = ATCC6538, Zinc (50 μM), read-out: S. aureus ATCC 6538 MIC

MIC [1, 4]	MIC [1, 5]	MIC [2, 6]	MIC [2, 7]	MIC [3, 8]	MIC [3, 9]	SMILES	MIC ([1]; ATCC19436, read-out: S. uberis ATCC 19436 MIC, No Zinc)	MIC ([1]; ATCC19436, read-out: S. uberis ATCC 19436 MIC, Zinc (50 μM))	MIC ([2]; ATCC 10536 / ATCC 10596, read-out: E. coli ATCC 10536 MIC, No Zinc)	MIC ([2]; ATCC 10536 / ATCC 10596, read-out: E. coli ATCC 10536 MIC, Zinc (50 μM))	MIC ([3]; ATCC6538, read-out: S. aureus ATCC 6538 MIC, No Zinc)	MIC ([3]; ATCC6538, read-out: S. aureus ATCC 6538 MIC, Zinc (50 μM))
> 256 µg/mL	0.25 µg/mL (≈ 0.694 µM)	> 256 µg/mL	> 256 µg/mL	256 µg/mL (≈ 710 µM)	> 256 µg/mL	Cc1cc(CS(=O)(=O)Nc2cccc3ccc(CN(C)C)nc23)no1 [ZDR501, N-(2-((Dimethylamino)methyl)quinolin-8-yl)-1-(5-methylisoxazol-3-yl)methanesulfonamide]	–	–	–	–	–	–
16 µg/mL (≈ 36.6 µM)	0.125 µg/mL (≈ 0.286 µM)	64 µg/mL (≈ 146 µM)	> 256 µg/mL	32 µg/mL (≈ 73.1 µM)	128 µg/mL (≈ 293 µM)	CCCCNCc1ccc2cccc(NS(=O)(=O)c3ccc(C(F)(F)F)cc3)c2n1 [ZDR401, N-(2-((Butylamino)methyl)quinolin-8-yl)-4-(trifluoromethyl)benzenesulfonamide]	–	–	–	–	–	–
128 µg/mL (≈ 314 µM)	0.125 µg/mL (≈ 0.307 µM)	> 256 µg/mL	> 256 µg/mL	128 µg/mL (≈ 314 µM)	128 µg/mL (≈ 314 µM)	CN(C)Cc1ccc2cccc(NS(=O)(=O)c3ccc(OC(F)F)cc3)c2n1 [ZDR306, 4-(Difluoromethoxy)-N-(2-((dimethylamino)methyl)quinolin-8-yl)benzenesulfonamide]	–	–	–	–	–	–
256 µg/mL (≈ 618 µM)	2 µg/mL (≈ 4.83 µM)	> 256 µg/mL	> 256 µg/mL	> 256 µg/mL	> 256 µg/mL	COC(=O)Nc1ccc(S(=O)(=O)Nc2cccc3ccc(CN(C)C)nc23)cc1 [ZDR332, Methyl (4-(N-(2-((dimethylamino)methyl)quinolin-8-yl)sulfamoyl)phenyl)carbamate]	–	–	–	–	–	–
128 µg/mL (≈ 305 µM)	0.125 µg/mL (≈ 0.297 µM)	> 256 µg/mL	> 256 µg/mL	64 µg/mL (≈ 152 µM)	128 µg/mL (≈ 305 µM)	CN(C)Cc1ccc2cccc(NS(=O)(=O)c3cccc(Br)c3)c2n1 [ZDR309, 3-Bromo-N-(2-((dimethylamino)methyl)quinolin-8-yl)benzenesulfonamide]	–	–	–	–	–	–
64 µg/mL (≈ 156 µM)	0.125 µg/mL (≈ 0.305 µM)	256 µg/mL (≈ 625 µM)	≥ 256 µg/mL	32 µg/mL (≈ 78.2 µM)	> 256 µg/mL	CCNCc1ccc2cccc(NS(=O)(=O)c3ccc(C(F)(F)F)cc3)c2n1 [ZDR025, N-(2-((Ethylamino)methyl)quinolin-8-yl)-4-(trifluoromethyl)-benzenesulfonamide]	–	–	–	–	–	–
64 µg/mL (≈ 125 µM)	1 µg/mL (≈ 1.95 µM)	256 µg/mL (≈ 499 µM)	256 µg/mL (≈ 499 µM)	128 µg/mL (≈ 249 µM)	256 µg/mL (≈ 499 µM)	O=S(=O)(Nc1cccc2ccc(CNCCOCCOCCO)nc12)c1ccc(C(F)(F)F)cc1 [ZDR130, N-(2-(((2-(2-(2-Hydroxyethoxy)ethoxy)ethyl)amino)methyl)quinolin-8-yl)-4-(trifluoromethyl)benzenesulfonamide]	–	–	–	–	–	–
> 256 µg/mL	0.125 µg/mL (≈ 0.295 µM)	> 256 µg/mL	> 256 µg/mL	256 µg/mL (≈ 605 µM)	32 µg/mL (≈ 75.6 µM)	CC(=O)NCc1ccc2cccc(NS(=O)(=O)c3ccc(C(F)(F)F)cc3)c2n1 [ZDR185, N-((8-((4-(Trifluoromethyl)phenyl)sulfonamido)quinolin-2-yl)methyl)acetamide]	–	–	–	–	–	–
64 µg/mL (≈ 132 µM)	1 µg/mL (≈ 2.07 µM)	256 µg/mL (≈ 529 µM)	256 µg/mL (≈ 529 µM)	64 µg/mL (≈ 132 µM)	128 µg/mL (≈ 265 µM)	COCCOCCNCc1ccc2cccc(NS(=O)(=O)c3ccc(C(F)(F)F)cc3)c2n1 [ZDR131, N-(2-(((2-(2-Methoxyethoxy)ethyl)amino)methyl)quinolin-8-yl)-4-(trifluoromethyl)benzenesulfonamide]	–	–	–	–	–	–
> 256 µg/mL	0.125 µg/mL (≈ 0.341 µM)	> 256 µg/mL	> 256 µg/mL	> 256 µg/mL	> 256 µg/mL	Cc1ccc2cccc(NS(=O)(=O)c3ccc(C(F)(F)F)cc3)c2n1 [ZDR018, N-(2-Methylquinolin-8-yl)-4-(trifluoromethyl)benzenesulfonamide]	–	–	–	–	–	–
> 256 µg/mL	8 µg/mL (≈ 17.2 µM)	> 256 µg/mL	> 256 µg/mL	> 256 µg/mL	> 256 µg/mL	CC(C)N(Cc1ccc2cccc(NS(=O)(=O)c3ccc(C(F)(F)F)cc3)c2n1)C(C)C [ZDR136, N-(2-((Diisopropylamino)methyl)quinolin-8-yl)-4-(trifluoromethyl)benzenesulfonamide]	–	–	–	–	–	–
64 µg/mL (≈ 137 µM)	1 µg/mL (≈ 2.14 µM)	128 µg/mL (≈ 274 µM)	256 µg/mL (≈ 549 µM)	64 µg/mL (≈ 137 µM)	128 µg/mL (≈ 274 µM)	CC(=O)NCCNCc1ccc2cccc(NS(=O)(=O)c3ccc(C(F)(F)F)cc3)c2n1 [ZDR148, N-(2-(((8-((4-(Trifluoromethyl)phenyl)sulfonamido)quinolin-2-yl)methyl)amino)ethyl)acetamide]	–	–	–	–	–	–
256 µg/mL (≈ 833 µM)	32 µg/mL (≈ 104 µM)	> 256 µg/mL	> 256 µg/mL	> 256 µg/mL	> 256 µg/mL	CC(C)S(=O)(=O)Nc1cccc2ccc(CN(C)C)nc12 [ZDR318, N-(2-((Dimethylamino)methyl)quinolin-8-yl)propane-2-sulfonamide]	–	–	–	–	–	–
16 µg/mL (≈ 35.6 µM)	0.125 µg/mL (≈ 0.278 µM)	128 µg/mL (≈ 285 µM)	> 256 µg/mL	32 µg/mL (≈ 71.2 µM)	256 µg/mL (≈ 570 µM)	O=S(=O)(Nc1cccc2ccc(CNC3CCCC3)nc12)c1ccc(C(F)(F)F)cc1 [ZDR404, N-(2-((Cyclopentylamino)methyl)quinolin-8-yl)-4-(trifluoromethyl)benzenesulfonamide]	–	–	–	–	–	–
> 256 µg/mL	0.125 µg/mL (≈ 0.278 µM)	> 256 µg/mL	> 256 µg/mL	> 256 µg/mL	> 256 µg/mL	O=S(=O)(Nc1cccc2ccc(CN3CCCCC3)nc12)c1ccc(C(F)(F)F)cc1 [ZDR033, N-(2-((Piperidin-1-yl)methyl)quinolin-8-yl)-4-(trifluoromethyl)-benzenesulfonamide]	–	–	–	–	–	–
> 256 µg/mL	0.125 µg/mL (≈ 0.348 µM)	> 256 µg/mL	> 256 µg/mL	256 µg/mL (≈ 712 µM)	256 µg/mL (≈ 712 µM)	CN(C)Cc1ccc2cccc(NS(=O)(=O)c3ccc(F)cc3)c2n1 [ZDR065, N-(2-((Dimethylamino)methyl)quinolin-8-yl)-4-fluorobenzenesulfonamide]	–	–	–	–	–	–
64 µg/mL (≈ 152 µM)	0.25 µg/mL (≈ 0.593 µM)	128 µg/mL (≈ 304 µM)	256 µg/mL (≈ 607 µM)	64 µg/mL (≈ 152 µM)	> 256 µg/mL	O=S(=O)(Nc1cccc2ccc(CNC3CC3)nc12)c1ccc(C(F)(F)F)cc1 [ZDR086, N-(2-((Cyclopropylamino)methyl)quinolin-8-yl)-4-(trifluoromethyl)benzenesulfonamide]	–	–	–	–	–	–
–	–	–	–	–	–	O=C(CNCc1ccc2cccc(NS(=O)(=O)c3ccc(C(F)(F)F)cc3)c2n1)NO [ZDR267, N-hydroxy-2-(((8-((4-(trifluoromethyl)phenyl)sulfonamido)quinolin-2-yl)methyl)amino)acetamide trifluoroacetate]	256 µg/mL	256 µg/mL	> 256 µg/mL	> 256 µg/mL	256 µg/mL	128 µg/mL
16 µg/mL (≈ 34.5 µM)	0.125 µg/mL (≈ 0.27 µM)	128 µg/mL (≈ 276 µM)	> 256 µg/mL	64 µg/mL (≈ 138 µM)	128 µg/mL (≈ 276 µM)	O=S(=O)(Nc1cccc2ccc(CNC3CCCCC3)nc12)c1ccc(C(F)(F)F)cc1 [ZDR405, N-(2-((Cyclohexylamino)methyl)quinolin-8-yl)-4-(trifluoromethyl)benzenesulfonamide]	–	–	–	–	–	–
